Here are results for 28 compounds from patent publication US20240417406A1, “NITROGEN-CONTAINING TRICYCLIC COMPOUND AND PHARMACEUTICAL USE THEREOF” (JAPAN TOBACCO INC., priority 2021, published 2024).

Where only a bound is given, the exact number is not on record here.

One test concerns the target human PDHK2 (hPDHK2) (Homo sapiens (Human), UniProt Q15119). The test is described as follows: Inhibitory action of PDHK2 activity (PDH/hPDHK2 complex, residual PDH activity by NADH absorbance at 340 nm). Type of test: biochemical. Particulars: FLAG-tagged recombinant hPDHK2 with porcine heart PDH complex; PDHK reaction 45 min at room temperature. As for the experimental part:
In the case of human PDHK2 (hPDHK2, NCBI Reference Database Accession number NM_002611.4), modified hPDHK2 cDNA wherein FLAG-Tag sequence was added to the N terminal of hPDHK2 cDNA clone (pReceiver-M01/PDK2-GeneCopoeia) as the base was prepared by polymerase chain reaction (PCR) and ligated to the NdeI/EcoRI site of pET-17b vector (Merck KGaA, Catalog Number 69663-3). The recombinant construct was transformed into Escherichia coli DH5a. The recombinant clones were identified, and plasmid DNA was isolated and subjected to the DNA sequence analysis. One clone which had the expected nucleic acid sequence was selected for expression work.
For expression of hPDHK2 activity, Escherichia coli strain BL21(DE3) cells (Merck KGaA, Catalog Number 69450-4) were transformed with the pET17b vector containing modified hPDHK2 cDNA. The Escherichia coli were grown to an optical density 0.6 ([…]) at 30° C. Protein expression was induced by the addition of 500 μmol/L isopropyl-β-thiogalactopyranoside. The Escherichia coli were cultured at 20° C. for 17 to for 18 hr and harvested by centrifugation. The harvested Escherichia coli was resuspended in a suspension buffer (20 mmol/L HEPES-NaOH, 500 mmol/L sodium chloride, 1% ethylene glycol, 0.1% Pluronic (registered trademark) F-68 (pH 8.0), cOmplete, EDTA-free (Roche) (pH 8.0)), and disrupted by a microfluidizer M-110H (MIZUHO INDUSTRIAL CO., LTD.). The precipitate was removed by centrifugation and the supernatant was added to DDDDK-tagged Protein PURIFICATION GEL (MEDICAL & BIOLOGICAL LABORATORIES CO., LTD., Code No. 3329). DDDDK-tagged Protein PURIFICATION GEL was washed with a washing buffer (20 mmol/L HEPES-NaOH, 500 mmol/L sodium chloride, 1% ethylene glycol, 0.1% Pluronic F-68 (pH 8.0)) and the bound protein was eluted with elution buffer 1 (20 mmol/L HEPES-NaOH, 100 μg/mL peptide (amino acid sequence DYKDDDDK) (SEQ ID NO: 1), 500 mmol/L sodium chloride, 1% ethylene glycol, 0.1% Pluronic F-68 (pH 8.0)). The eluted fractions containing FLAG-Tagged protein were pooled, concentrated by an ultrafiltration method, added to a gel filtration column (HiLoad 26/60 Superdex 200 (GE Healthcare Life Sciences, Code No. 17-1070-01)), and eluted with elution buffer 2 (20 mmol/L HEPES-NaOH, 150 mmol/L sodium chloride, 0.5 mmol/L ethylenediaminetetraacetic acid (EDTA), 1% ethylene glycol, 0.1% Pluronic F-68 (pH 8.0)). The eluted fractions were pooled and preserved at −80° C.
PDH (porcine heart PDH complex, Sigma P7032) and 0.5 μg/mL hPDHK2 were mixed in an assay buffer (50 mmol/L 3-morpholinopropanesulfonic acid (pH 7.0), 20 mmol/L dipotassium hydrogen phosphate, 60 mmol/L potassium chloride, 2 mmol/L magnesium chloride, 0.4 mmol/L EDTA, 0.2% poloxamer, 2 mmol/L dithiothreitol) so that the final concentration of PDH was 0.025 U/mL, and the mixture was incubated at 4° C. overnight to obtain a PDH/hPDHK2 complex solution.
PDH was mixed with the assay buffer so that the final concentration was 0.025 U/mL, and the mixture was incubated at 4° C. overnight to prepare a PDH solution.
The test compounds were diluted with DMSO. […] DMSO (1.5 μL) was added to control wells instead of test compound. In addition, DMSO (1.5 μL) was added to blank wells instead of the test compound, and PDH solution was added instead of the PDH/hPDHK2 complex solution. To measure an inhibitory action of the test compound on the PDHK activity inherent in the PDH solution, a test compound was added and the PDH solution instead of the PDH/hPDHK2 complex solution was added to a blank+test compound well.
Then, 10 μL of substrates (5 mmol/L sodium pyruvate, 5 mmol/L Coenzyme A, 12 mmol/L NAD, 5 mmol/L thiamine pyrophosphate, diluted with assay buffer) were added. The mixture was incubated at room temperature for 90 min, and the residual PDH activity was measured.
The absorbance of each well at 340 nm was measured using a microplate reader to detect NADH produced by the PDH reaction. […]
What is called IC50 is the point on the concentration scale where inhibition reaches its midpoint. Regarding `C[C@H]1Cc2c(cnn2C2CC(C#N)C2)-c2onc([C@@](C)(O)C(F)(F)F)c21` (stereo in doubt) [Example 29], the half-inhibitory concentration (IC50) amounted to 23.6 nM.
Turning to `C[C@H]1Cn2nc(N3C[C@H]4C[C@@H]3CO4)cc2-c2cnc([C@@](C)(O)C(F)(F)F)n21` [Example 82], the IC50 is 34 nM.
As to `C[C@H]1Cn2nc(O[C@H]3C[C@@](C)(C#N)C3)cc2-c2onc([C@@](C)(O)C(F)(F)F)c21` (racemic) [Example 48], the IC50 is 18.1 nM.
On the same count and under the same terms, as for `C[C@H]1Cn2nc(C34CC(C(C)(C)O)(C3)C4)cc2-c2cnc([C@@](C)(O)C(F)(F)F)n21` [Example 76], the figure is 14.5 nM; as for `C[C@H]1Cc2c(cnn2C2CC(C#N)C2)-c2onc([C@@](C)(O)C(F)(F)F)c21` (stereo in doubt) [Example 26], 18.2 nM.
Still for that read-out and setting: then `C[C@H]1Cn2nc(OC3CCOCC3)cc2-c2onc([C@@](C)(O)C(F)(F)F)c21` (racemic) [Example 35], with 17.8 nM.
Still for that read-out and setting: as for `C[C@H]1Cn2nc(C34CC(CO)(C3)C4)cc2-c2cnc([C@@](C)(O)C(F)(F)F)n21` [Example 70], the figure is 21.2 nM.
Turning to `COC(=O)C12CCC(c3cc4n(n3)C[C@H](C)c3c-4cnnc3[C@@](C)(O)C(F)(F)F)(CC1)CC2` (racemic) [Example 102, methyl 4-[(R)-5-methyl-4-((R)-1,1,1-trifluoro-2-hydroxypropan-2-yl)-5,6-dihydropyrazolo[1′,5′:1,2]pyrido[3,4-d]pyridazin-9-yl]bicyclo[2.2.2]octane-1-carboxylate and methyl 4-[(S)-5-methyl-4-((S)-1,1,1-trifluoro-2-hydroxypropan-2-yl)-5,6-dihydropyrazolo[1′,5′:1,2]pyrido[3,4-d]pyridazin-9-yl]bicyclo[2.2.2]octane-1-carboxylate], the IC50 was over 100 nM.
Still for that read-out and setting: then `C[C@H]1Cn2nc(C34CCC(C#N)(CC3)OC4)cc2-c2cnc([C@@](C)(O)C(F)(F)F)n21` [Example 88, 4-((S)-5-methyl-3-((R)-1,1,1-trifluoro-2-hydroxypropan-2-yl)-5,6-dihydroimidazo[1,5-a]pyrazolo[5,1-c]pyrazin-9-yl)-2-oxabicyclo[2.2.2]octane-1-carbonitrile], with 23.8 nM; and `C[C@H]1Cc2nn([C@H]3C[C@@](C)(C#N)C3)cc2-c2onc([C@@](C)(O)C(F)(F)F)c21` (racemic) [Example 58, (1R,3s)-1-methyl-3-((S)-4-methyl-3-((R)-1,1,1-trifluoro-2-hydroxypropan-2-yl)-4,5-dihydro-7H-isoxazolo[5,4-e]indazol-7-yl)cyclobutane-1-carbonitrile and enantiomer thereof], with 20.4 nM; and `C[C@H]1Cn2nc(OCC34CCC(C#N)(CC3)CC4)cc2-c2cnc([C@@](C)(O)C(F)(F)F)n21` [Example 89], with 37.7 nM.
Turning to `C[C@H]1Cn2nc(C34CCC(CO)(CC3)CO4)cc2-c2cnc([C@@](C)(O)C(F)(F)F)n21` [Example 94], the IC50 is 49.5 nM.
`C[C@H]1Cn2nc(OC3CCOCC3)cc2-c2onc([C@@](C)(O)C(F)(F)F)c21` [Example 59, (R)-1,1,1-trifluoro-2-((R)-4-methyl-8-((tetrahydro-2H-pyran-4-yl)oxy)-4,5-dihydroisoxazolo[5,4-c]pyrazolo[1,5-a]pyridin-3-yl)propan-2-ol]: the IC50 worked out at 7.1 nM.
For `C[C@H]1Cn2c(nnc2C(C)(C)F)-c2onc([C@@](C)(O)C(F)(F)F)c21` [Example 4], the IC50 worked out at 10.9 nM.
`C[C@H]1Cn2nccc2-c2onc([C@@](C)(O)C(F)(F)F)c21` [Example 60, (R)-1,1,1-trifluoro-2-((R)-4-methyl-4,5-dihydroisoxazolo[5,4-c]pyrazolo[1,5-a]pyridin-3-yl)propan-2-ol]: the IC50 stood at 6.7 nM.
The same measure, in the same setting: as for `C[C@H]1Cn2nc(OCC(C)(C)O)cc2-c2onc([C@@](C)(O)C(F)(F)F)c21` [Example 31, (R)-1,1,1-trifluoro-2-((R)-8-(2-hydroxy-2-methylpropoxy)-4-methyl-4,5-dihydroisoxazolo[5,4-c]pyrazolo[1,5-a]pyridin-3-yl)propan-2-ol], the figure is 13.7 nM.
Take `C[C@H]1Cn2nc(OCCC(C)(C)O)cc2-c2onc([C@@](C)(O)C(F)(F)F)c21` (racemic) [Example 34]: the IC50 came to 14.7 nM.
`COC(=O)C12CCC(c3nnc4n3C[C@H](C)c3c([C@@](C)(O)C(F)(F)F)noc3-4)(CC1)CC2` [Example 11]: the IC50 turned out to be 6.6 nM.
Still for that read-out and setting: as for `C[C@H]1Cc2c(cnn2[C@H]2CC[C@](C)(O)CC2)-c2onc([C@@](C)(O)C(F)(F)F)c21` (racemic) [Example 56, (1S,4r)-1-methyl-4-((S)-4-methyl-3-((R)-1,1,1-trifluoro-2-hydroxypropan-2-yl)-4,5-dihydro-6H-isoxazolo[5,4-e]indazol-6-yl)cyclohexan-1-ol and enantiomer thereof], the figure is 10.7 nM; as for `C[C@H]1Cn2nc(O[C@H]3CC[C@](C)(O)CC3)cc2-c2onc([C@@](C)(O)C(F)(F)F)c21` (racemic) [Example 37], 17.2 nM; as for `C[C@H]1Cn2nc(O[C@H]3CC[C@](C)(O)CC3)cc2-c2onc([C@@](C)(O)C(F)(F)F)c21` [Example 65, (1R,4r)-1-methyl-4-(((R)-4-methyl-3-((R)-1,1,1-trifluoro-2-hydroxypropan-2-yl)-4,5-dihydroisoxazolo[5,4-c]pyrazolo[1,5-a]pyridin-8-yl)oxy)cyclohexan-1-ol], 6.6 nM.
On to `C[C@H]1Cn2c(nnc2C(F)(F)F)-c2onc([C@@](C)(O)C(F)(F)F)c21` [Example 1, (R)-1,1,1-trifluoro-2-((R)-6-methyl-3-(trifluoromethyl)-5,6-dihydroisoxazolo[5,4-c][1,2,4]triazolo[4,3-a]pyridin-7-yl)propan-2-ol], for which the IC50 was found to be 24.3 nM.
As to `C[C@H]1Cn2c(nnc2C2CC2)-c2onc([C@@](C)(O)C(F)(F)F)c21` [Example 5], the IC50 came to 10.6 nM.
As to `C[C@H]1Cn2nc(N3CC4CC(C3)C4(F)F)cc2-c2cnc([C@@](C)(O)C(F)(F)F)n21` [Example 79], the IC50 turned out to be 35.2 nM.
Take `C[C@H]1Cn2c(nnc2C(C)(F)F)-c2onc([C@@](C)(O)C(F)(F)F)c21` [Example 3]: the IC50 was found to be 20.4 nM.
Turning to `C[C@H]1Cc2nn([C@H]3C[C@](C)(C#N)C3)cc2-c2onc([C@@](C)(O)C(F)(F)F)c21` (racemic) [Example 54, (1S,3r)-1-methyl-3-((S)-4-methyl-3-((R)-1,1,1-trifluoro-2-hydroxypropan-2-yl)-4,5-dihydro-7H-isoxazolo[5,4-e]indazol-7-yl)cyclobutane-1-carbonitrile and enantiomer thereof], the half-inhibitory concentration (IC50) was found to be 7.2 nM.
On the same count and under the same terms, then `C[C@H]1Cc2nn(CCC#N)cc2-c2onc([C@@](C)(O)C(F)(F)F)c21` (racemic) [Example 32], with 20.1 nM; and `C[C@H]1Cn2nc(C3CCOCC3)cc2-c2onc([C@@](C)(O)C(F)(F)F)c21` [Example 61, (R)-1,1,1-trifluoro-2-((R)-4-methyl-8-(tetrahydro-2H-pyran-4-yl)-4,5-dihydroisoxazolo[5,4-c]pyrazolo[1,5-a]pyridin-3-yl)propan-2-ol], with 9.8 nM.

Staying with this test, now noted: at 100.0 nM, given when the IC50 value could not be calculated; read-out: hPDHK2 inhibitory rate.
`COC(=O)C12CCC(c3cc4n(n3)C[C@H](C)c3c-4cnnc3[C@@](C)(O)C(F)(F)F)(CC1)CC2` (racemic) [Example 102, methyl 4-[(R)-5-methyl-4-((R)-1,1,1-trifluoro-2-hydroxypropan-2-yl)-5,6-dihydropyrazolo[1′,5′:1,2]pyrido[3,4-d]pyridazin-9-yl]bicyclo[2.2.2]octane-1-carboxylate and methyl 4-[(S)-5-methyl-4-((S)-1,1,1-trifluoro-2-hydroxypropan-2-yl)-5,6-dihydropyrazolo[1′,5′:1,2]pyrido[3,4-d]pyridazin-9-yl]bicyclo[2.2.2]octane-1-carboxylate]: the inhibition at 0.1 µM was 3%.
